Patent US12528814B2, “Bifunctional degraders of interleukin-1 receptor-associated kinases and therapeutic use thereof” (NURIX THERAPEUTICS, INC., priority 2020, dated 2026)
pIC50: −log10 of the molar value. Where two headings read alike, the source gives them in different places.

How the values were obtained:
IRAK4 [1] = biological target: T1, IRAK4 (Homo sapiens (Human), UniProt Q9NWZ3); assay: IRAK4 Degradation HiBiT Assay; settings: HiBiT-tagged Jurkat cells, 4 hrs; for Dmax: Jurkat; for DC50: read-out: Cellular IRAK4 HiBiT: DC50
Target sequence in this assay (Q9NWZ3 whole entry): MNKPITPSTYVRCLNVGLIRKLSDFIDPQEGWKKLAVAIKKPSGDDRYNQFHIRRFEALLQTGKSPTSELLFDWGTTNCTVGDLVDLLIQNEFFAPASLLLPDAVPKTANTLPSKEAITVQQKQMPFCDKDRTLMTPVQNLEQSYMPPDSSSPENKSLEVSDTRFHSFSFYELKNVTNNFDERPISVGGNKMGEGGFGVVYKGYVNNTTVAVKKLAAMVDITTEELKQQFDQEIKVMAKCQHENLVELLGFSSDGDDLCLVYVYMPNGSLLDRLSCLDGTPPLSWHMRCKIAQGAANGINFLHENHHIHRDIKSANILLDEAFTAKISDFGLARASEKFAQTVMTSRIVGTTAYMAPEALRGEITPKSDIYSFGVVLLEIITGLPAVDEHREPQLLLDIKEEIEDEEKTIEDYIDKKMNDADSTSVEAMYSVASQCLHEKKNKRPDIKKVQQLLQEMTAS

IRAK4 [2] = biological target: T1, IRAK4; assay: IRAK4 Biochemical HTRF Kinase Assay; settings: read-out: IRAK4 HTRF biochemical: IC50
Procedure: IRAK4 Biochemical HTRF Kinase Assay
The binding capacities of certain bifunctional compounds of Formula (I) were determined using the CisBio HTRF KinEASE STK S1 Kit (#62ST1PEB, contains 5× Kinase buffer, 1× Detection Buffer, anti-phospho-serine/threonine-cryptate, Streptavidin-XL665, and STK-S1), which measures the phosphorylation of a biotinylated peptide substrate by IRAK4, according to the manufacturer's protocol. […] 2 μl of a reaction solution containing 5 μM STK-S1, 10 mM ATP, and 10 mM MgCl2 were added to each well to a final volume of 10 μl. Assay controls include wells containing kinase with no compound (DMSO only) and wells containing no kinase and no compound (DMSO only). The reactions were allowed to proceed at ambient temperature for 90 minutes. […] The plates were incubated for 60 minutes at ambient temperature and then read on an Envision Multilabel Reader (PerkinElmer). […] For IC50 determination, the compounds were tested at sixteen concentrations in duplicate and curve-fitting was performed by non-linear regression analysis using GraphPad Priam.
Target sequence in this assay (Q9NWZ3 whole entry, species assumed): as the sequence (Q9NWZ3 whole entry) above

[3] = read-out: Cellular IRAK4 HiBiT: Dmax, Table 4
[4] = read-out: Cellular IRAK4 HiBiT: Dmax, Table 5, multiple runs

Row | Compound | Dmax (IRAK4 [1]; [3]) [%] | Dmax (IRAK4 [1]; [4]) [%] | DC50 (IRAK4 [1]; Table 4) [nM] | DC50 (IRAK4 [1]; Table 5, multiple runs) [nM] | pIC50 (IRAK4 [2]; Table 4) | pIC50 (IRAK4 [2]; Table 5, multiple runs)
1 | CNc1cc(-c2ccc3cc(C#N)cnn23)ncc1-c1nnc(N2CC3CCC(C2)N3C2CCN(C(=O)C[C@H](NC(=O)[C@@H]3C[C@@H](O)CN3C(=O)[C@@H](NC(=O)C3(F)CC3)C(C)(C)C)c3ccc(-c4scnc4C)cc3)CC2)s1 [Example 166, (2S,4R)—N-((1S)-3-(4-(3-(5-(6-(3-cyanopyrrolo[1,2-b]pyridazin-7-yl)-4-(methylamino)pyridin-3-yl)-1,3,4-thiadiazol-2-yl)-3,8-diazabicyclo[3.2.1]octan-8-yl)piperidin-1-yl)-1-(4-(4-methylthiazol-5-yl)phenyl)-3-oxopropyl)-1-((S)-2-(1-fluorocyclopropane-1-carboxamido)-3,3-dimethylbutanoyl)-4-hydroxypyrrolidine-2-carboxamide] |  | 114 |  | 67.7 |  | 9.00
2 | CNc1cc(-c2ccc3cc(C#N)cnn23)ncc1-c1nnc([C@H]2CC[C@@H](NC(=O)CN3CCC4(CC3)CN(c3ccc5c(c3)C(=O)N(C3CCC(=O)NC3=O)C5=O)C4)CC2)s1 (stereo partly drawn) [Example 127, N-((1s,4s)-4-(5-(6-(3-cyanopyrrolo[1,2-b]pyridazin-7-yl)-4-(methylamino)pyridin-3-yl)-1,3,4-thiadiazol-2-yl)cyclohexyl)-2-(2-(2-(2,6-dioxopiperidin-3-yl)-1,3-dioxoisoindolin-5-yl)-2,7-diazaspiro[3.5]nonan-7-yl)acetamide] |  | 58 |  | 187 |  | 9.10
3 | CNc1cc(-c2ccc3cc(C#N)cnn23)ncc1-c1nnc([C@H]2CC[C@H](N(C)C(=O)CN3CCN(c4ccc5c(c4)C(=O)N(C4CCC(=O)NC4=O)C5=O)CC3)CC2)s1 (stereo partly drawn) [Example 137, N-((1r,4r)-4-(5-(6-(3-cyanopyrrolo[1,2-b]pyridazin-7-yl)-4-(methylamino)pyridin-3-yl)-1,3,4-thiadiazol-2-yl)cyclohexyl)-2-(4-(2-(2,6-dioxopiperidin-3-yl)-1,3-dioxoisoindolin-5-yl)piperazin-1-yl)-N-methylacetamide] |  | 108 |  | 19.1 |  | 7.65

The remaining lines, values ahead:

Row | Dmax (IRAK4 [1]; [3]) [%] | Dmax (IRAK4 [1]; [4]) [%] | DC50 (IRAK4 [1]; Table 4) [nM] | DC50 (IRAK4 [1]; Table 5, multiple runs) [nM] | pIC50 (IRAK4 [2]; Table 4) | pIC50 (IRAK4 [2]; Table 5, multiple runs) | Compound
4 | 67 | 83 | 4330 | 2490 | 7.72 | 7.72 | Cc1ncsc1-c1ccc(CNC(=O)[C@@H]2C[C@@H](O)CN2C(=O)C(NC(=O)[C@H]2CC[C@H](C(=O)N3CCN(c4nnc(-c5cnc(-c6ccc7cc(C#N)cnn67)cc5NC(C)C)s4)CC3)CC2)C(C)(C)C)cc1 (stereo partly drawn) [Example 45, (2S,4R)-1-((S)-2-((1r,4S)-4-(4-(5-(6-(3-cyanopyrrolo[1,2-b]pyridazin-7-yl)-4-(isopropylamino)pyridin-3-yl)-1,3,4-thiadiazol-2-yl)piperazine-1-carbonyl)cyclohexane-1-carboxamido)-3,3-dimethylbutanoyl)-4-hydroxy-N-(4-(4-methylthiazol-5-yl)benzyl)pyrrolidine-2-carboxamide]
5 | 93 | 52 | 12.9 | 5.87 | 9.11 | 9.10 | CNc1cc(-c2ccc3cc(C#N)cnn23)ncc1-c1nnc([C@H]2CC[C@H](NC(=O)CCOCCNc3cccc4c3C(=O)N(C3CCC(=O)NC3=O)C4=O)CC2)s1 (stereo partly drawn) [Example 71, N-((1r,4r)-4-(5-(6-(3-cyanopyrrolo[1,2-b]pyridazin-7-yl)-4-(methylamino)pyridin-3-yl)-1,3,4-thiadiazol-2-yl)cyclohexyl)-3-(2-((2-(2,6-dioxopiperidin-3-yl)-1,3-dioxoisoindolin-4-yl)amino)ethoxy)propanamide]
6 | 99 | 97 | 42.7 | 37.2 | 9.10 | 9.10 | CC(C)Nc1cc(-c2ccc3cc(C#N)cnn23)ncc1-c1nnc(N2CCN(C(=O)CCN3CCN(c4ccc5c(c4)C(=O)N(C4CCC(=O)NC4=O)C5=O)CC3)CC2)s1 (stereo not drawn) [Example 14, 7-(5-(5-(4-(3-(4-(2-(2,6-dioxopiperidin-3-yl)-1,3-dioxoisoindolin-5-yl)piperazin-1-yl)propanoyl)piperazin-1-yl)-1,3,4-thiadiazol-2-yl)-4-(isopropylamino)pyridin-2-yl)pyrrolo[1,2-b]pyridazine-3-carbonitrile]
